Experimental data taken from patent US9273033B2, “Substituted pyridone derivatives as PDE10 inhibitors” (Merck Sharp & Dohme Corp., priority 2012, dated 2016).

Target: human PDE10A2 (Homo sapiens (Human), UniProt Q9Y233)
Assay: PDE10 fluorescence polarization (IMAP FP) inhibition assay
Type: biochemical
Details: human PDE10A2, FAM-labeled cAMP substrate, read-out: PDE10A Ki
Procedure, shortened: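 Cytoplasmic lysate of AD293 cells transiently expressing human PDE10A2 (diluted to ~20% substrate conversion) incubated 30 min at room temperature with 50 nM FAM-cAMP in Tris pH 7.2 buffer with MgCl2, DTT. Activity read by IMAP fluorescence polarization. 0% inhibition set with 1% DMSO, 100% with reference PDE10 inhibitor.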

human PDE10A2, sequence (Q9Y233 267-1055): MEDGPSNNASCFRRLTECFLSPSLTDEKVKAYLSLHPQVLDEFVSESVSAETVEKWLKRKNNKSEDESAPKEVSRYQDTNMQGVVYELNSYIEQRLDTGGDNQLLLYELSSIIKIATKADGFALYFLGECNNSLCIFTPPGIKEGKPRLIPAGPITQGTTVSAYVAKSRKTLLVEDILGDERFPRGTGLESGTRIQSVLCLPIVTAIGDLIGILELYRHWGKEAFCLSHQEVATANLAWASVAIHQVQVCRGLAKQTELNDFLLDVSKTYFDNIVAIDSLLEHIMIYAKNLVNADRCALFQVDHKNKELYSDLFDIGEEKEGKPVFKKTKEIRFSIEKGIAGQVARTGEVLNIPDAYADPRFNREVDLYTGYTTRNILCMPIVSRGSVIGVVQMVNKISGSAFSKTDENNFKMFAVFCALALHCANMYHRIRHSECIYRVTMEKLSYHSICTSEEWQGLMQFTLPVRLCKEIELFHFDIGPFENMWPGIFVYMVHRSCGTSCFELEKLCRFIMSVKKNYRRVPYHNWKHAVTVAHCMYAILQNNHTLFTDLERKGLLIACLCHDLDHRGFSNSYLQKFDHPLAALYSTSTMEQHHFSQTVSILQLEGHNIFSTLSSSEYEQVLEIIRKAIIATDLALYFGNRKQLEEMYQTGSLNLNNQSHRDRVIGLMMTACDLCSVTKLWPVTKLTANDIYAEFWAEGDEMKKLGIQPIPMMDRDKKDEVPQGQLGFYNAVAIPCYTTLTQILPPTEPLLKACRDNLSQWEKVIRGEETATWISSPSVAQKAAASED

Compound	Ki [nM]
Cc1ccc([C@H]2C[C@@H]2COc2nc(C)ncc2-c2cc(=O)[nH]cc2C)nc1 [Example 71, 5-methyl-4-(2-methyl-4-(((1S,2S)-2-(5-methylpyridin-2-yl)cyclopropyl)methoxy)pyrimidin-5-yl)pyridin-2(1H)-one]	1.01
Cc1ccc([C@H]2C[C@@H]2COc2nc(C)ncc2-c2cc(=O)n(C)cc2C)nc1 [Example 72, 1,5-dimethyl-4-(2-methyl-4-(((1S,2S)-2-(5-methylpyridin-2-yl)cyclopropyl)methoxy)pyrimidin-5-yl)pyridin-2(1H)-one]	2.16
COc1ccc([C@H]2C[C@@H]2COc2nc(C)ncc2-c2cc(=O)n(C)cc2Cl)nc1 [Example 73, 5-chloro-4-(4-(((1S,2S)-2-(5-methoxypyridin-2-yl)cyclopropyl)methoxy)-2-methylpyrimidin-5-yl)-1-methylpyridin-2(1H)-one]	1.13
Cc1ncc(-c2cc(=O)n(C)cc2C)c(OC[C@H]2C[C@@H]2c2ccccn2)n1 [Example 74, 1,5-dimethyl-4-(2-methyl-4-(((1S,2S)-2-(pyridin-2-yl)cyclopropyl)methoxy)pyrimidin-5-yl)pyridin-2(1H)-one]	16.6
Cc1ncc(-c2cc(=O)[nH]cc2C)c(OC[C@H]2C[C@@H]2c2ccccn2)n1 [Example 75, 5-methyl-4-(2-methyl-4-(((1S,2S)-2-(pyridin-2-yl)cyclopropyl)methoxy)pyrimidin-5-yl)pyridin-2(1H)-one]	8.38
Cc1ncc(-c2cc(=O)n(C)cc2C)c(OC[C@H]2C[C@@H]2c2ccc3ccccc3n2)n1 [Example 76, 1,5-dimethyl-4-(2-methyl-4-(((1S,2S)-2-(quinolin-2-yl)cyclopropyl)methoxy)pyrimidin-5-yl)pyridin-2(1H)-one]	0.035
COc1ccc([C@H]2C[C@@H]2COc2nc(C)ncc2-c2cc(=O)[nH]cc2C)nc1 [Example 77, 4-(4-(((1S,2S)-2-(5-methoxypyridin-2-yl)cyclopropyl)methoxy)-2-methylpyrimidin-5-yl)-5-methylpyridin-2(1H)-one]	0.612
Cc1ccc([C@H]2C[C@@H]2COc2nc(C)ncc2-c2ccn(C)c(=O)c2)nc1 [Example 78, 1-methyl-4-(2-methyl-4-(((1S,2S)-2-(5-methylpyridin-2-yl)cyclopropyl)methoxy)pyrimidin-5-yl)pyridin-2(1H)-one]	1.73
Cc1ncc(-c2ccn(C)c(=O)c2)c(OC[C@H]2C[C@@H]2c2ccc3ccccc3n2)n1 [Example 79, 1-methyl-4-(2-methyl-4-(((1S,2S)-2-(quinolin-2-yl)cyclopropyl)methoxy)pyrimidin-5-yl)pyridin-2(1H)-one]	0.03
Cc1ncc(-c2ccn(C)c(=O)c2)c(OC[C@H]2C[C@@H]2c2ccccn2)n1 [Example 80, 1-methyl-4-(2-methyl-4-(((1S,2S)-2-(pyridin-2-yl)cyclopropyl)methoxy)pyrimidin-5-yl)pyridin-2(1H)-one]	10.8
Cc1ncc(-c2cc(=O)[nH]cc2C)c(OC[C@H]2C[C@@H]2c2ccc3ccccc3n2)n1 [Example 81, 5-methyl-4-(2-methyl-4-(((1S,2S)-2-(quinolin-2-yl)cyclopropyl)methoxy)pyrimidin-5-yl)pyridin-2(1H)-one]	0.011
COc1ccc([C@H]2C[C@@H]2COc2nc(C)ncc2-c2cc(=O)n(C)cc2C)nc1 [Example 82, 4-(4-(((1S,2S)-2-(5-methoxypyridin-2-yl)cyclopropyl)methoxy)-2-methylpyrimidin-5-yl)-1,5-dimethylpyridin-2(1H)-one]	0.496
COc1ccc([C@H]2C[C@@H]2COc2nc(C)ncc2-c2cc(=O)[nH]cc2Cl)nc1 [Example 83, 5-chloro-4-(4-(((1S,2S)-2-(5-methoxypyridin-2-yl)cyclopropyl)methoxy)-2-methylpyrimidin-5-yl)pyridin-2(1H)-one]	0.39
Cc1ncc(-c2ccn(C)c(=O)c2)c(OC[C@@H]2C[C@H]2c2ccc(F)cn2)n1 [Example 84, 4-(4-(((1R,2R)-2-(5-fluoropyridin-2-yl)cyclopropyl)methoxy)-2-methylpyrimidin-5-yl)-1-methylpyridin-2(1H)-one]	88.4
COCCn1ccc(-c2cnc(C)nc2OC[C@H]2C[C@@H]2c2ccc(C)cn2)cc1=O [Example 85, 1-(2-methoxyethyl)-4-(2-methyl-4-(((1S,2S)-2-(5-methylpyridin-2-yl)cyclopropyl)methoxy)pyrimidin-5-yl)pyridin-2(1H)-one]	0.439
Cc1ccc([C@H]2C[C@@H]2COc2nc(C)ncc2-c2cc(C)n(C)c(=O)c2)nc1 [Example 86, 1,6-dimethyl-4-(2-methyl-4-(((1S,2S)-2-(5-methylpyridin-2-yl)cyclopropyl)methoxy)pyrimidin-5-yl)pyridin-2(1H)-one]	1.56
COc1ccc([C@H]2C[C@@H]2COc2nc(C)ncc2-c2cc(C)n(C)c(=O)c2)nc1 [Example 87, 4-(4-(((1S,2S)-2-(5-methoxypyridin-2-yl)cyclopropyl)mcthoxy)-2-methylpyrimidin-5-yl)-1,6-dimethylpyridin-2(1H)-one]	0.785

Compound	Ki [nM]
Cc1ncc(-c2ccn(C)c(=O)c2)c(OC[C@H]2C[C@@H]2c2ccc(F)cn2)n1 [Example 88, 4-(4-(((1S,2S)-2-(5-fluoropyridin-2-yl)cyclopropyl)methoxy)-2-methylpyrimidin-5-yl)-1-methylpyridin-2(1H)-one]	27.5
COc1ccc([C@H]2C[C@@H]2COc2nc(C)ncc2-c2cc(=O)n(C)cc2C#N)nc1 [Example 89, 4-(4-(((1S,2S)-2-(5-methoxypyridin-2-yl)cyclopropyl)methoxy)-2-methylpyrimidin-5-yl)-1-methyl-6-oxo-1,6-dihydropyridine-3-carbonitrile]	7.39
Cc1ncc(-c2ccn(C)c(=O)c2)c(OC[C@H]2C[C@@H]2c2ccc(OC(F)F)cn2)n1 [Example 90, 4-(4-(((1S,2S)-2-(5-(difluoromethoxy)pyridin-2-yl)cyclopropyl)methoxy)-2-methylpyrimidin-5-yl)-1-methylpyridin-2(1H)-one]	9.22
Cc1ccc([C@H]2C[C@@H]2COc2nc(C)ncc2-c2ccn(C(C)C)c(=O)c2)nc1 [Example 91, 1-isopropyl-4-(2-methyl-4-(((1S,2S)-2-(5-methylpyridin-2-yl)cyclopropyl)methoxy)pyrimidin-5-yl)pyridin-2(1H)-one]	1.2
COc1ccc([C@H]2C[C@@H]2COc2nc(C)ncc2-c2cc(=O)n(C)cc2SC)nc1 [Example 92, 4-(4-(((1S,2S)-2-(5-methoxypyridin-2-yl)cyclopropyl)methoxy)-2-methylpyrimidin-5-yl)-1-methyl-5-(methylthio)pyridin-2(1H)-one]	12.5
COc1ccc([C@H]2C[C@@H]2COc2nc(C)ncc2-c2cc(=O)n(C)cc2C(F)(F)F)nc1 [Example 93, 4-(4-(((1S,2S)-2-(5-methoxypyridin-2-yl)cyclopropyl)mcthoxy)-2-methylpyrimidin-5-yl)-1-methyl-5-(trifluoromethyl)pyridin-2(1H)-one]	3.02
Cc1ncc(-c2ccn(C)c(=O)c2)c(OC[C@@H]2C[C@H]2c2ccc(OC(F)F)cn2)n1 [Example 94, 4-(4-(((1R,2R)-2-(5-(difluoromethoxy)pyridin-2-yl)cyclopropyl)methoxy)-2-methylpyrimidin-5-yl)-1-methylpyridin-2(1H)-one]	100
CCn1ccc(-c2cnc(C)nc2OC[C@H]2C[C@@H]2c2ccc(OC)cn2)cc1=O [Example 95, 1-ethyl-4-(4-(((1S,2S)-2-(5-methoxypyridin-2-yl)cyclopropyl)methoxy)-2-methylpyrimidin-5-yl)pyridin-2(1H)-one]	0.75
CCn1ccc(-c2cnc(C)nc2OC[C@H]2C[C@@H]2c2ccc3ccccc3n2)cc1=O [Example 96, 1-ethyl-4-(2-methyl-4-(((lS,2S)-2-(quinolin-2-yl)cyclopropyl)methoxy)pyrimidin-5-yl)pyridin-2(1H)-one]	0.021
Cc1ncc(-c2cc(C)n(C)c(=O)c2)c(OC[C@H]2C[C@@H]2c2ccc3ccccc3n2)n1 [Example 97, 1,6-dimethyl-4-(2-methyl-4-(((1S,2S)-2-(quinolin-2-yl)cyclopropyl)methoxy)pyrimidin-5-yl)pyridin-2(1H)-one]	0.041
COc1ccc([C@H]2C[C@@H]2COc2nc(C)ncc2-c2cc(=O)n(C)cc2S(C)(=O)=O)nc1 [Example 98, 4-(4-(((1S,2S)-2-(5-methoxypyridin-2-yl)cyclopropyl)methoxy)-2-methylpyrimidin-5-yl)-1-methyl-5-(methylsulfonyl)pyridin-2(1H)-one]	67.5
Cc1ccc([C@H]2C[C@@H]2COc2nc(C)ncc2-c2cc(=O)n(C)cc2Cl)nc1 [Example 99, 5-chloro-1-methyl-4-(2-methyl-4-(((1S,2S)-2-(5-methylpyridin-2-yl)cyclopropyl)methoxy)pyrimidin-5-yl)pyridin-2(1H)-one]	1.11
COCCn1ccc(-c2cnc(C)nc2OC[C@H]2C[C@@H]2c2ccc3ccccc3n2)cc1=O [Example 100, 1-(2-methoxyethyl)-4-(2-methyl-4-(((1S,2S)-2-(quinolin-2-yl)cyclopropyl)methoxy)pyrimidin-5-yl)pyridin-2(1H)-one]	0.012
COCCn1ccc(-c2cnc(C)nc2OC[C@H]2C[C@@H]2c2ccc(C)cn2)cc1=O [Example 101, 1-(2-methoxyethyl)-4-(2-mcthyl-4-(((1S,2S)-2-(5-methylpyridin-2-yl)cyclopropyl)methoxy)pyrimidin-5-yl)pyridin-2(lH)-one]	0.4
Cc1ncc(-c2cc(=O)n(C)cc2Cl)c(OC[C@H]2C[C@@H]2c2ccc3ccccc3n2)n1 [Example 102, 5-chloro-1-methyl-4-(2-methyl-4-(((1S,2S)-2-(quinolin-2-yl)cyclopropyl)methoxy)pyrimidin-5-yr)pyridin-2(1H)-one]	0.04
Cc1ncc(-c2ccn(C)c(=O)c2)c(OC[C@@H]2C[C@H]2c2ccc(Cl)cn2)n1 [Example 103, 4-(4-(((1R,2R)-2-(5-chloropyridin-2-yl)cyclopropyl)methoxy)-2-methylpyrimidin-5-yl)-1-methylpyridin-2(1H)-one]	100
